# Source: PubChem BioAssay (NCI)
#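 Cells were grown in 96-well plates and exposed to each compound for 48 hours at five concentrations; endpoints were interpolated linearly between bracketing concentrations, or set to the highest concentration if not reached. GI50 is the concentration that inhibits growth by half. TGI: concentration producing complete growth inhibition.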
# What was measured:
# Experiment in all cases: growth of human tumour cells (NCI), 48 h
# COLO 205 colon = test system: COLO 205 colon
# TK-10 renal = test system: TK-10 renal
# HCT-15 colon = test system: HCT-15 colon
# OVCAR-4 ovarian = test system: OVCAR-4 ovarian
# SF-295 CNS = test system: SF-295 CNS
# SN12C renal = test system: SN12C renal
# ACHN renal = test system: ACHN renal
# SNB-75 CNS = test system: SNB-75 CNS
# DU-145 prostate = test system: DU-145 prostate
# SK-MEL-5 melanoma = test system: SK-MEL-5 melanoma
smiles,measurement,setting,value
COc1ccc2c3c([nH]c2c1)CCN(Cc1ccccc1)C3,TGI,COLO 205 colon,38.5 µM
same,TGI,TK-10 renal,65.1 µM
same,TGI,HCT-15 colon,39 µM
same,TGI,OVCAR-4 ovarian,> 100 µM
same,TGI,SF-295 CNS,28.2 µM
same,TGI,SN12C renal,78.2 µM
same,TGI,ACHN renal,> 100 µM
same,TGI,SNB-75 CNS,> 100 µM
same,TGI,DU-145 prostate,> 100 µM
same,TGI,SK-MEL-5 melanoma,32.6 µM
Cc1nc2[nH]ncn2c(=O)c1CCO,TGI,COLO 205 colon,> 10 µM
same,TGI,TK-10 renal,> 10 µM
same,TGI,HCT-15 colon,> 10 µM
same,TGI,OVCAR-4 ovarian,> 10 µM
same,TGI,SN12C renal,> 10 µM
same,TGI,ACHN renal,> 10 µM
same,TGI,SNB-75 CNS,> 10 µM
same,TGI,DU-145 prostate,> 10 µM
same,TGI,SK-MEL-5 melanoma,> 10 µM
CC(CN(C)C)C(=O)c1ccccc1 (stereo unspecified),TGI,COLO 205 colon,> 67.5 µM
same,TGI,TK-10 renal,> 100 µM
same,TGI,HCT-15 colon,33.4 µM
same,TGI,OVCAR-4 ovarian,> 55.5 µM
same,TGI,SF-295 CNS,> 100 µM
same,TGI,SN12C renal,33.8 µM
same,TGI,ACHN renal,> 56.5 µM
same,TGI,SNB-75 CNS,> 100 µM
same,TGI,SK-MEL-5 melanoma,> 100 µM
COc1cc(C2c3cc4c(cc3[C@@H](Oc3ccc(F)cc3)C3COC(=O)[C@H]23)OCO4)cc(OC)c1O (stereo partly specified),TGI,COLO 205 colon,4.86 µM
same,TGI,HCT-15 colon,> 100 µM
same,TGI,OVCAR-4 ovarian,> 100 µM
same,TGI,SF-295 CNS,> 60 µM
same,TGI,SN12C renal,> 100 µM
same,TGI,SK-MEL-5 melanoma,10.9 µM
COc1ccc(C2C3CCCC(C3=O)C(c3ccc(OC)cc3)N2N=O)cc1 (stereo unspecified),TGI,COLO 205 colon,42.3 µM
same,TGI,HCT-15 colon,> 100 µM
same,TGI,OVCAR-4 ovarian,45 µM
same,TGI,SF-295 CNS,45.8 µM
same,TGI,SN12C renal,39.2 µM
same,TGI,SNB-75 CNS,62.4 µM
same,TGI,SK-MEL-5 melanoma,32.4 µM
ClCc1cccc(CSc2ncnc3c2ncn3Cc2cccc(CCl)c2)c1,GI50,COLO 205 colon,1.88 µM
same,TGI,COLO 205 colon,3.43 µM
same,GI50,TK-10 renal,1.93 µM
same,TGI,TK-10 renal,3.61 µM
same,GI50,HCT-15 colon,1.71 µM
same,TGI,HCT-15 colon,3.42 µM
same,GI50,OVCAR-4 ovarian,2.38 µM
same,TGI,OVCAR-4 ovarian,10.6 µM
same,GI50,SF-295 CNS,2.13 µM
same,TGI,SF-295 CNS,5.59 µM
same,GI50,SN12C renal,2.02 µM
same,TGI,SN12C renal,7.33 µM
same,GI50,ACHN renal,2 µM
same,TGI,ACHN renal,4.39 µM
same,GI50,SNB-75 CNS,1.51 µM
same,TGI,SNB-75 CNS,2.93 µM
same,GI50,DU-145 prostate,1.85 µM
same,TGI,DU-145 prostate,3.3 µM
same,GI50,SK-MEL-5 melanoma,1.56 µM
same,TGI,SK-MEL-5 melanoma,2.9 µM
COc1ccc2c(c1)c(=O)c1c(NCCN(C)C)ccc3nnn2c31,TGI,COLO 205 colon,10 µM
same,TGI,TK-10 renal,13.3 µM
same,TGI,HCT-15 colon,16 µM
same,TGI,OVCAR-4 ovarian,8.17 µM
same,TGI,SF-295 CNS,13.9 µM
same,TGI,SN12C renal,19.7 µM
same,TGI,ACHN renal,14.6 µM
same,TGI,SNB-75 CNS,20.7 µM
same,TGI,SK-MEL-5 melanoma,14.1 µM
CCOC(=O)Cc1cnc(NC(NC(=O)CC)(C(F)(F)F)C(F)(F)F)s1,TGI,TK-10 renal,> 100 µM
same,TGI,HCT-15 colon,> 100 µM
same,TGI,SN12C renal,> 100 µM
same,TGI,ACHN renal,> 100 µM
same,TGI,SNB-75 CNS,> 100 µM
same,TGI,DU-145 prostate,> 100 µM
COc1ccc(N2C(=O)C3c4[nH]c5ccc(F)cc5c4C4CCC(C(C)(C)C)CC4C3C2=O)cc1 (stereo unspecified),TGI,COLO 205 colon,> 10 µM
same,TGI,TK-10 renal,> 10 µM
same,TGI,HCT-15 colon,> 10 µM
same,TGI,OVCAR-4 ovarian,> 10 µM
same,TGI,SF-295 CNS,> 10 µM
same,TGI,SN12C renal,> 10 µM
same,TGI,ACHN renal,> 10 µM
same,TGI,SNB-75 CNS,4.87 µM
same,TGI,DU-145 prostate,> 10 µM
same,TGI,SK-MEL-5 melanoma,> 10 µM
O=C(NCCNc1nccc(-c2c(-c3cccc(O)c3)nc3sccn23)n1)c1ccccc1,GI50,COLO 205 colon,3.99 µM
same,TGI,COLO 205 colon,23.8 µM
same,GI50,TK-10 renal,11.7 µM
same,TGI,TK-10 renal,37.1 µM
same,GI50,HCT-15 colon,18.8 µM
same,TGI,HCT-15 colon,62.2 µM
same,GI50,OVCAR-4 ovarian,13.9 µM
same,TGI,OVCAR-4 ovarian,84.6 µM
same,GI50,SF-295 CNS,12.9 µM
same,TGI,SF-295 CNS,38 µM
same,GI50,SN12C renal,9.04 µM
same,TGI,SN12C renal,38.4 µM
same,GI50,ACHN renal,6.43 µM
same,TGI,ACHN renal,34.9 µM
same,GI50,SNB-75 CNS,3.27 µM
same,TGI,SNB-75 CNS,28.1 µM
same,GI50,DU-145 prostate,19.7 µM
same,TGI,DU-145 prostate,68.7 µM
same,GI50,SK-MEL-5 melanoma,4.15 µM
same,TGI,SK-MEL-5 melanoma,17.5 µM
O=C(NNS(=O)(=O)c1ccccc1)c1cccnc1,TGI,COLO 205 colon,> 100 µM
same,TGI,TK-10 renal,> 100 µM
same,TGI,HCT-15 colon,> 100 µM
same,TGI,OVCAR-4 ovarian,> 100 µM
same,TGI,SF-295 CNS,> 100 µM
same,TGI,SN12C renal,> 100 µM
same,TGI,ACHN renal,> 100 µM
same,TGI,SNB-75 CNS,> 100 µM
same,TGI,DU-145 prostate,> 100 µM
same,TGI,SK-MEL-5 melanoma,> 100 µM
